In assay [1] the target is T1, Plk1 PBD (Homo sapiens, UniProt P53350).
T1 construct: Mitotic 293A lysates expressing HA-EGFP-Plk1 were prepared in the TBSN buffer; expressed in transfected cells; host or cells: 293A cells, mitotic lysate
In words: ELISA-based Plk1 PBD-binding inhibition assay. Here is the method:
The wells were washed once with PBS + 0.05% Tween 20 (PBST), and incubated with 200 µl of PBS + 1% BSA (blocking buffer) for 1 h to prevent the unoccupied sites. […] Next, the plates were washed four times with PBST, and to detect the bound HA-EGFP-Plk1, the plates were incubated for 2 h with 100 µL/well of anti-HA antibody at a concentration of 0.5 µg/mL in the blocking buffer, and then the plates were washed five times. Furthermore, the plates were incubated with 100 µL/well of secondary antibody at a 1:1,000 dilution in the blocking buffer. Afterward, the plates were washed five times with PBST and incubated with 100 µL/well of 3,3′,5,5′-tetramethylbenzidine (TMB) substrate solution (Sigma, St. Louis, MO) until a desired absorbance was achieved. The reactions were terminated by the addition of 1 N H2SO4, and the optical densities were measured at 450 nm using an ELISA plate reader (Molecular Device, Sunnyvale, CA).

The target of the next assay is T2, PBD of Plk1 (Homo sapiens, UniProt P53350).
T2 construct: The Plk1 PBD protein (residues 371−603) was purified as previously described; made in house
Description: Fluorescence polarization assay, Plk1 PBD. Conditions: 25 nM 5-carboxyfluorescein-DPPLHSpTAI-OH, Figure 8, read-out: IC50 PBD1. Type of assay: binding. Here is the method:
Fluorescein-labeled peptides (5-carboxyfluorescein-DPPLHSpTAI-OH, final concentration: 25 nM) were incubated with the PBDs of Plk1, Plk2, and Plk3, respectively (final concentrations of buffer components: 10 mM Tris [pH 8.0], 1 mM EDTA, 50 mM NaCl, and 0.01% Nonidet P-40). Fluorescence polarization was analyzed 10 min after mixing all components in the 384-well format using a Molecular Devides SpectraMax Paradigm Multi-Mode Microplate Detection Platform. All experiments were performed in triplicate.
(In general: Polarisation of emitted light reports the rotation of a fluorescent probe.)

In assay [2] the target is T1, Plk1 PBD. The arrangement: method as in PMID 19597481. Conditions: cited from earlier work.
Where [3] appears, read: ELISA-based assay, text values referring to Figure 2, read-out: IC50 (Plk1 PBD binding).
The mark [4] stands for this setting: first-phase N-alkylated Pro derivatives, HA-EGFP-Plk1 from mitotic 293A lysates vs immobilized p-T78 peptide, Figure 2, read-out: IC50 (ELISA-based Plk1 PBD-binding assay, Figure 2B).

Read-outs that look alike come from different tables or passages of the source. Where a SMILES comes first, the peptide text is derived from it.

T1 sequence (P53350 whole entry): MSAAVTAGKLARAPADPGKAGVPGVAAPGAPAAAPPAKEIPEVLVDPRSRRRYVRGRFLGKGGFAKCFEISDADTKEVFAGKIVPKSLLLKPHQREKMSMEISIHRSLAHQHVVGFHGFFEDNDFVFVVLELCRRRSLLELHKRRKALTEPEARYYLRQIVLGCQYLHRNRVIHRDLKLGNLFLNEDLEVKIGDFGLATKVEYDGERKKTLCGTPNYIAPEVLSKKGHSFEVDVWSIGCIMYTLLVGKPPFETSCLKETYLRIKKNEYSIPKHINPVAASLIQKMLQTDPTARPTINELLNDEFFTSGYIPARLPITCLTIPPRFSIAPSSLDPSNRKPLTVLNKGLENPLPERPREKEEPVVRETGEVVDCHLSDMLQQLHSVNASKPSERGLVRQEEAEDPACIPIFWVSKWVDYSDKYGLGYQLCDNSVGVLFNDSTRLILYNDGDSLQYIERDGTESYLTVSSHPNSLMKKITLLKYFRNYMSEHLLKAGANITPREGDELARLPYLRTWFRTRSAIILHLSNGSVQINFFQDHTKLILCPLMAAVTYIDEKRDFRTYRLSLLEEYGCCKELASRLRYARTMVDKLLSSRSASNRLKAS
T2 sequence (P53350 371-603): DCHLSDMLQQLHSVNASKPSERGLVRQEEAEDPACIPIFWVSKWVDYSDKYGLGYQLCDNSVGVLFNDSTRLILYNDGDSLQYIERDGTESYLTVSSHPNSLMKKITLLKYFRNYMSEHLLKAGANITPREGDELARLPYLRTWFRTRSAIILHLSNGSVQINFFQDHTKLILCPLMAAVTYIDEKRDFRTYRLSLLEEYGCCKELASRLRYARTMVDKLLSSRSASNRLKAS

Take `COc1cc(CN2CCC[C@H]2C(=O)N[C@@H](CC(C)C)C(=O)N[C@@H](Cc2c[nH]cn2)C(=O)N[C@@H](CO)C(=O)N[C@H](C(=O)N[C@@H](CCSC)C(N)=O)[C@@H](C)OP(=O)(O)O)cc(OC)c1OC` [PL-42, (MeO)3PhCH2PLHSpTM] (HELM PEPTIDE1{[COc1cc(CN2CCC[C@H]2C(=O)[*:2])cc(OC)c1OC].L.H.S.[C[C@@H](OP(=O)(O)O)[C@H](N[*:1])C(=O)[*:2]].M.[am]}$$$$V2.0): the IC50 (usually the point on the concentration scale where inhibition reaches its midpoint) on Plk1 PBD [1] (setting [3]) is 1.48 µM; at Plk1 PBD [1] (setting [4]) it was 1.64 µM; at PBD of Plk1, 0.522 µM.

Take `CSCC[C@H](NC(=O)[C@@H](NC(=O)[C@H](CO)NC(=O)[C@H](Cc1c[nH]cn1)NC(=O)[C@H](CC(C)C)NC(=O)[C@@H]1CCCN1Cc1cc2c(cc1Cl)OCO2)[C@@H](C)OP(=O)(O)O)C(N)=O` [PL-43] (HELM PEPTIDE1{[O=C([C@@H]1CCCN1Cc1cc2c(cc1Cl)OCO2)[*:2]].L.H.S.[C[C@@H](OP(=O)(O)O)[C@H](N[*:1])C(=O)[*:2]].M.[am]}$$$$V2.0): at Plk1 PBD [1] (setting [4]), the half-inhibitory concentration (IC50) worked out at 4.47 µM.

As for `CSCC[C@H](NC(=O)[C@@H](NC(=O)[C@H](CO)NC(=O)[C@H](Cc1c[nH]cn1)NC(=O)[C@H](CC(C)C)NC(=O)[C@@H]1CCCN1CC1CCCCC1)[C@@H](C)OP(=O)(O)O)C(N)=O` [PL-49, cyclohexylmethyl-PLHSpTM] (HELM PEPTIDE1{[O=C([C@@H]1CCCN1CC1CCCCC1)[*:2]].L.H.S.[C[C@@H](OP(=O)(O)O)[C@H](N[*:1])C(=O)[*:2]].M.[am]}$$$$V2.0), the 50% inhibitory concentration (IC50) came out at 0.36 µM at Plk1 PBD [1] (setting [3]) and 0.41 µM on Plk1 PBD [1] (setting [4]).

On to `CSCC[C@H](NC(=O)[C@@H](NC(=O)[C@H](CO)NC(=O)[C@H](Cc1c[nH]cn1)NC(=O)[C@H](CC(C)C)NC(=O)[C@@H]1CCCN1C(=O)CC12CC3CC(CC(C3)C1)C2)[C@@H](C)OP(=O)(O)O)C(N)=O` [PL-55] (HELM PEPTIDE1{[O=C(CC12CC3CC(CC(C3)C1)C2)[*:2]].P.L.H.S.[C[C@@H](OP(=O)(O)O)[C@H](N[*:1])C(=O)[*:2]].M.[am]}$$$$V2.0), for which the IC50 at PBD of Plk1 worked out at 0.131 µM.

On to `CSCC[C@H](NC(=O)[C@@H](NC(=O)[C@H](CO)NC(=O)[C@H](Cc1c[nH]cn1)NC(=O)[C@H](CC(C)C)NC(=O)[C@@H]1CCCN1C(=O)CC1CCCCC1)[C@@H](C)OP(=O)(O)O)C(N)=O` [PL-57] (HELM PEPTIDE1{[O=C(CC1CCCCC1)[*:2]].P.L.H.S.[C[C@@H](OP(=O)(O)O)[C@H](N[*:1])C(=O)[*:2]].M.[am]}$$$$V2.0), for which the half-inhibitory concentration (IC50) on Plk1 PBD [1] (first-phase N-acylated cyclohexyl analogues, values printed in picture of Figure 4, read-out: IC50 (ELISA-based Plk1 PBD-binding assay, Figure 4B)) was determined as 0.52 µM.

Take LHSpTA: the “binding to Plk1 PBD compared with PLHSpT” value on Plk1 PBD [2] is recorded as “almost as efficiently as the PLHSpT did”.

Values taken from publication PMC3819306, “Exploring the Binding Nature of Pyrrolidine Pocket-Dependent Interactions in the Polo-Box Domain of Polo-Like Kinase 1” (PLoS ONE, 2013).
